We go through 4 compounds from patent US6489342B2, “Aryloxy piperidinyl indoles for treating depression” (Wyeth, priority 2000, dated 2002).

Molecules are shown by their SMILES. Structures can show the parent of a compound that is named as a salt.

For one data set, the target named is T1, 5-HT1A (Homo sapiens, UniProt P08908).
T1 sequence (P08908 1-422): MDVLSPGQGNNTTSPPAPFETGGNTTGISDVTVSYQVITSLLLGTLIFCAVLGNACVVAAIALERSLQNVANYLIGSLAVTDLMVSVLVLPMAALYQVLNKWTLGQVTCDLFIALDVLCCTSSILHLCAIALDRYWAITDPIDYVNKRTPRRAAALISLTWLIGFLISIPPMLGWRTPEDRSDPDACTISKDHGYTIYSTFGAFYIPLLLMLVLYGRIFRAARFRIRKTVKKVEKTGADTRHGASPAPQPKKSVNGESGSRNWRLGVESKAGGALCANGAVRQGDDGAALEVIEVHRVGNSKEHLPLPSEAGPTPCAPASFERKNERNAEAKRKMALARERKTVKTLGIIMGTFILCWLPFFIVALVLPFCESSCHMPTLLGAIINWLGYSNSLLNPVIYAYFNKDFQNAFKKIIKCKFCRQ
The data set can be described thus: 5-HT1A receptor binding, [3H]DPAT. As to conditions: radioligand [3H]DPAT.

Regarding `Fc1ccc2[nH]cc(CC3CCN(CCOc4cccc5[nH]ccc45)CC3)c2c1` (as salt: hydrochloride) (hydrate or solvate) [Example 1, 5-Fluoro-3-{1-[2-(1H-indol-4-yloxy)ethyl]-piperidin-4-ylmethyl}-1H-indole], the melting point (usually the temperature of the solid-liquid transition) was 215 °C (dec.).

In turn, `CC(CN1CCC(Cc2c[nH]c3ccc(F)cc23)CC1)Oc1cccc2[nH]ccc12` (stereo not shown) (as salt: hydrochloride) [Example 2, 5-Fluoro-3-[[1-[2-(1H-indol-4-yloxy)propyl]-4-piperidinyl]methyl]-1H-indole] gave a melting point of 130 to 132 °C.

`Fc1ccc2[nH]cc(CC3CCN(CCOc4cccc5[nH]ccc45)CC3)c2c1` [Example 1, 5-Fluoro-3-{1-[2-(1H-indol-4-yloxy)ethyl]-piperidin-4-ylmethyl}-1H-indole]: the Ki (usually the equilibrium dissociation constant of an inhibitor or competing ligand from its target) at 5-HT1A worked out at 47 nM.

`CC(CN1CCC(Cc2c[nH]c3ccc(F)cc23)CC1)Oc1cccc2[nH]ccc12` (stereo not shown) [Example 2, 5-Fluoro-3-[[1-[2-(1H-indol-4-yloxy)propyl]-4-piperidinyl]methyl]-1H-indole]: the “5-HT1A [3H]DPAT, percent at 100 nM” value at 5-HT1A (@ 100 nM) was 14% @.
